Results as given in patent publication US11884675B2, “Heterocyclic compounds as triggering receptor expressed on myeloid cells 2 agonists and methods of use” (AMGEN INC., priority 2020, dated 2024).

biological target: hTREM2 (Homo sapiens, UniProt Q9NZC2); assay: TREM2 agonist potency by Syk phosphorylation (AlphaLisa) in HEK293T-hTREM2 cells, used for Examples 306-429; assay type: cell-based; design: expressed in transfected cells; host or cells: HEK293T (HEK293T-hTREM2 cells); conditions: HEK293 Cells
Sequence (Q9NZC2 19-230): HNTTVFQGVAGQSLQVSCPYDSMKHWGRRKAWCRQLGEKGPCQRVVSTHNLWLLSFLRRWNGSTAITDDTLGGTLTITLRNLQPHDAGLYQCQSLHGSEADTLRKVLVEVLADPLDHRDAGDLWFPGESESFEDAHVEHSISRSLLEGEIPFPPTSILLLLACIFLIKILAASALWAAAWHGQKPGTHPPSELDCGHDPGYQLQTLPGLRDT
Sequence (O43914 22-113 partner): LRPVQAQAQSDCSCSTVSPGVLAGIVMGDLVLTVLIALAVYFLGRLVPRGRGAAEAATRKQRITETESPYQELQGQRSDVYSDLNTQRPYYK
Description: In vitro Measurement of Triggering Receptor Expressed on Myeloid Cells 2 activity using cellular phosphorylation of Spleen Tyrosine Kinase (“Syk”) Assays used for Examples 306-429
Measurement of TREM2 agonist potency was done using a HEK cell line expressing human TREM2 and DAP12 (HEK293T-hTREM2 cells). Binding of small molecules to, and activation of, TREM2 increases the phosphorylation of Syk. The resultant levels of Syk phosphorylation were measured using a commercial AlphaLisa reagent kit. To perform the assay, HEK-hTREM2 cells were plated at 14,000 cells per well in a 384 well plate, in 25 μL, of complete growth media and incubated at 37° C., 5% CO2 for 20-24 hours. Prior to the assay, test compounds were diluted in the 384 well plates in assay buffer and allowed to equilibrate for 30 minutes. Growth media was removed from cell plates by inversion on blotting paper, and 25 μL of test compounds in assay buffer was added to cells. Cells were incubated for 45 minutes at room temperature. After 45 minutes, assay buffer was removed and 10 μL of lysis buffer was added. Plates were shaken for 20 minutes at 350 RPM at room temperature. After complete lysis, AlphaLisa reagents were added to the lysate, and fluourescence intensity was measured using a Perkin Elmer Envision plate reader. Intensities were used to generate a standard curve, and % activation was calculated. Curve fitting was performed using Prism v9 software, log(agonist) vs response-variable slope (four parameters), and EC50s were calculated from the curve fit.
The results presented in Table 20 have been generated with the in vitro assay described above for Examples 306-429. This assay may be used to test any of the compounds described herein to assess and characterize a compound's ability to act as an agonist of TREM2.

Row | EC50 | Compound
1 | ≤ 50 nM | Cc1nc2nc(C3CCOC(c4cnn(C5CC5)c4)C3)cc(-c3ccc(Cl)cc3F)c2nc1C (stereo not drawn) [Example 402, 8-(4-chloro-2-fluorophenyl)-6-(2-(1-cyclopropyl-1H-pyrazol-4-yl)tetrahydro-2H-pyran-4-yl)-2,3-dimethylpyrido[2,3-b]pyrazine]
2 | 50 to 500 nM | Cc1nc2cc(N3CC(C)OC(c4cnn(C5CC5)c4)C3)nc(-c3ccc(Cl)cc3F)c2nc1C (stereo not drawn) [Example 367, 4-(5-(4-chloro-2-fluorophenyl)-2,3-dimethylpyrido[3,4-b]pyrazin-7-yl)-2-(1-cyclopropyl-1H-pyrazol-4-yl)-6-methylmorpholine]
3 | ≤ 50 nM | Cc1cnc2c(-c3ccc(F)cc3F)nc(N3C[C@@H](C)O[C@@H](c4cnn(C5CC5)c4)C3)nc2n1 [Example 420, (2S,6R)-2-(1-cyclopropyl-1H-pyrazol-4-yl)-4-(4-(2,4-difluorophenyl)-7-methylpteridin-2-yl)-6-methylmorpholine]
4 | 50 to 500 nM | Cc1cc([C@H]2C[C@@H](c3cc4nc(C)cnc4c(-c4ccc(Cl)cc4F)n3)CCO2)ccn1 (racemic) [Example 310, 5-(4-chloro-2-fluorophenyl)-2-methyl-7-(2-(2-methylpyridin-4-yl)tetrahydro-2H-pyran-4-yl)pyrido[3,4-b]pyrazine]
5 | ≤ 50 nM | Cc1cnc2c(-c3ccc(F)cc3F)nc(N3CCOC(c4cnn(C5CC5)c4)C3)cc2n1 (stereo not drawn) [Example 341, 2-(1-cyclopropyl-1H-pyrazol-4-yl)-4-(5-(2,4-difluorophenyl)-2-methylpyrido[3,4-b]pyrazin-7-yl)morpholine]
6 | 50 to 500 nM | Cc1cc(C2CC(c3nc(-c4ccc(C(F)(F)F)nc4)c4ccc(C)nc4n3)CCO2)ccn1 (stereo not drawn) [Example 324, 7-methyl-2-(2-(2-methylpyridin-4-yl)tetrahydro-2H-pyran-4-yl)-4-(6-(trifluoromethyl)pyridin-3-yl)pyrido[2,3-d]pyrimidine]
7 | 50 to 500 nM | Cc1nc2cc(N3CCO[C@H](c4cnn(C5CC5)c4)C3)nc(-c3ccc(C(F)(F)F)nc3)c2nc1C [Example 385, (2R)-2-(1-cyclopropylpyrazol-4-yl)-4-[2,3-dimethyl-5-[6-(trifluoromethyl)-3-pyridyl]pyrido[3,4-b]pyrazin-7-yl]morpholine]
8 | ≤ 50 nM | Cc1nc2nc(N3C[C@@H](C)O[C@@H](c4cnn(C5CC5)c4)C3)nc(-c3ccc(F)cc3F)c2nc1C [Example 427, (2S,6R)-2-(1-cyclopropyl-1H-pyrazol-4-yl)-4-(4-(2,4-difluorophenyl)-6,7-dimethylpteridin-2-yl)-6-methylmorpholine]
9 | ≤ 50 nM | Cc1cc(C2CN(c3cc4nc(C)c(C)nc4c(-c4ccc(F)cc4F)n3)CCO2)ccn1 (stereo not drawn) [Example 315, 4-(5-(2,4-difluorophenyl)-2,3-dimethylpyrido[3,4-b]pyrazin-7-yl)-2-(2-methylpyridin-4-yl)morpholine]
10 | ≤ 50 nM | Cc1cc([C@H]2C[C@@H](c3nc(-c4ccc(F)cc4F)c4ccc(C)nc4n3)CCO2)ccn1 (racemic) [Example 323, 4-(2,4-difluorophenyl)-7-methyl-2-(2-(2-methylpyridin-4-yl)tetrahydro-2H-pyran-4-yl)pyrido[2,3-d]pyrimidine]
11 | ≤ 50 nM | Cc1cc(C2CN(c3cc4nc(C)c(C)cc4c(-c4ccc(F)cc4F)n3)CCO2)ccn1 (stereo not drawn) [Example 346, 4-(5-(2,4-difluorophenyl)-2,3-dimethyl-1,6-naphthyridin-7-yl)-2-(2-methylpyridin-4-yl)morpholine]
12 | 50 to 500 nM | Cc1nc2cc(N3C[C@@H](C)O[C@@H](c4cnn(C5CC5)c4)C3)nc(-c3ccc(F)cc3F)c2nc1C [Example 403, (2S,6R)-2-(1-cyclopropyl-1H-pyrazol-4-yl)-4-(5-(2,4-difluorophenyl)-2,3-dimethylpyrido[3,4-b]pyrazin-7-yl)-6-methylmorpholine]
13 | ≤ 50 nM | Cc1cnc2c(-c3ccc(F)cc3F)nc(N3C[C@@H](C)O[C@@H](c4cnn(C5CC5)c4)C3)cc2n1 (racemic) [Example 362, 2-(1-cyclopropyl-1H-pyrazol-4-yl)-4-(5-(2,4-difluorophenyl)-2-methylpyrido[3,4-b]pyrazin-7-yl)-6-methylmorpholine]
14 | ≤ 50 nM | Cc1cc([C@@H]2CN(c3nc(-c4cc(F)c(Cl)cc4F)c4nc(C)c(C)nc4n3)CCO2)ccn1 [Example 391, (2R)-4-[4-(4-chloro-2,5-difluoro-phenyl)-6,7-dimethyl-pteridin-2-yl]-2-(2-methyl-4-pyridyl)morpholine]
15 | 500 to 3000 nM | Cc1cc([C@H]2C[C@H](c3cc4nc(C)c(C)nc4c(-c4ccc(F)cc4F)n3)CCO2)ccn1 [Example 331, 5-(2,4-difluorophenyl)-2,3-dimethyl-7-((2R,4R)-2-(2-methylpyridin-4-yl)tetrahydro-2H-pyran-4-yl)pyrido[3,4-b]pyrazine]
16 | 50 to 500 nM | Cc1nc2cc(N3CCO[C@H](c4cnn(C5CC5)c4)C3)nc(-c3ccc(Cl)cc3F)c2nc1C [Example 383, (2R)-4-[5-(4-chloro-2-fluoro-phenyl)-2,3-dimethyl-pyrido[3,4-b]pyrazin-7-yl]-2-(1-cyclopropylpyrazol-4-yl)morpholine]
17 | ≤ 50 nM | Cc1nc2cc([C@H]3CCO[C@@H](c4cnn(C5CC5)c4)C3)nc(C34CC(C(F)(F)F)(C3)C4)c2nc1C (mixture of isomers) [Example 392, 2,3-dimethyl-7-[2-(1-cyclopropylpyrazol-4-yl)tetrahydropyran-4-yl]-5-[3-(trifluoromethyl)-1-bicyclo[1.1.1]pentanyl]pyrido[3,4-b]pyrazine]
18 | 50 to 500 nM | Cc1nc2nc([C@@H]3CCO[C@@H](c4cnn(C5CC5)c4)C3)nc(-c3ccc(F)cc3Cl)c2nc1C [Example 321, 4-(2-chloro-4-fluorophenyl)-2-((2R,4R)-2-(1-cyclopropyl-1H-pyrazol-4-yl)tetrahydro-2H-pyran-4-yl)-6,7-dimethylpteridine]
19 | ≤ 50 nM | Cc1nc2nc(N3C[C@@H](C)O[C@@H](c4cnn(C5CC5)c4)C3)nc(-c3ccc(Cl)cc3F)c2nc1C [Example 425, (2S,6R)-4-(4-(4-chloro-2-fluorophenyl)-6,7-dimethylpteridin-2-yl)-2-(1-cyclopropyl-1H-pyrazol-4-yl)-6-methylmorpholine]
20 | ≤ 50 nM | Cc1nc2nc(N3C[C@@H](C)O[C@@H](c4cnn(C5CC5)c4)C3)nc(-c3ccc(Cl)cc3F)c2nc1C (racemic) [Example 373, 4-(4-(4-chloro-2-fluorophenyl)-6,7-dimethylpteridin-2-yl)-2-(1-cyclopropyl-1H-pyrazol-4-yl)-6-methylmorpholine]
21 | 50 to 500 nM | Cc1nc2nc([C@@H]3CCO[C@@H](c4cnn(C5CC5)c4)C3)nc(-c3ccc(C(F)(F)F)cc3F)c2nc1C [Example 412, 2-((2R,4R)-2-(1-cyclopropyl-1H-pyrazol-4-yl)tetrahydro-2H-pyran-4-yl)-4-(2-fluoro-4-(trifluoromethyl)phenyl)-6,7-dimethylpteridine]
22 | 50 to 500 nM | Cc1ccc2c(C34CC(C(C)C)(C3)C4)nc([C@H]3CCO[C@@H](c4cnn(C5CC5)c4)C3)nc2n1 [Example 428, 2-((2R,4S)-2-(1-cyclopropyl-1H-pyrazol-4-yl)tetrahydro-2H-pyran-4-yl)-4-(3-isopropylbicyclo[1.1.1]pentan-1-yl)-7-methylpyrido[2,3-d]pyrimidine]
23 | 50 to 500 nM | COc1cc([C@@H]2CN(c3nc(-c4ccc(Cl)cc4F)c4nc(C)c(C)nc4n3)CCO2)ccn1 [Example 336, (R)-4-(4-(4-chloro-2-fluorophenyl)-6,7-dimethylpteridin-2-yl)-2-(2-methoxypyridin-4-yl)morpholine]
24 | 500 to 3000 nM | Cc1cnc2c(C34CC(C)(C3)C4)nc([C@H]3C[C@@H](C)O[C@@H](c4cnn(C5CC5)c4)C3)cc2n1 [Example 421, 7-((2R,4S,6R)-2-(1-cyclopropyl-1H-pyrazol-4-yl)-6-methyltetrahydro-2H-pyran-4-yl)-2-methyl-5-(3-methylbicyclo[1.1.1]pentan-1-yl)pyrido[3,4-b]pyrazine]
25 | ≤ 50 nM | Cc1cnc2c(C34CC(C(F)(F)F)(C3)C4)nc(N3C[C@H](C)O[C@@H](c4cnn(C5CC5)c4)C3)nc2n1 [Example 404, (2S,6S)-2-(1-cyclopropyl-1H-pyrazol-4-yl)-6-methyl-4-(7-methyl-4-(3-(trifluoromethyl)bicyclo[1.1.1]pentan-1-yl)pteridin-2-yl)morpholine]
26 | 50 to 500 nM | Cc1cnc2c(-c3ccc(F)cc3F)nc([C@H]3CCO[C@H](c4cnn(C5CC5)c4)C3)nc2n1 [Example 339, 2-((2S,4S)-2-(1-cyclopropyl-1H-pyrazol-4-yl)tetrahydro-2H-pyran-4-yl)-4-(2,4-difluorophenyl)-7-methylpteridine]
27 | ≤ 50 nM | Cc1nc2cc(N3C[C@H](C)O[C@@H](c4cnn(C5CC5)c4)C3)nc(-c3ccc(F)cc3F)c2nc1C (racemic) [Example 357, 2-(1-cyclopropyl-1H-pyrazol-4-yl)-4-(5-(2,4-difluorophenyl)-2,3-dimethylpyrido[3,4-b]pyrazin-7-yl)-6-methylmorpholine]
